Calls of active or inactive are those of the source.
What was measured:
[1] = target: T1, Trace amine-associated receptor 1 (Homo sapiens, UniProt Q96RJ0); assay: Counterscreen for agonists of the human trace amine associated receptor 1 (hTAAR1): Fluorescence-based cell-based high throughput dose response assay to identify hTAAR1 agonist that also desensitize TAAR1 receptor response.; type: functional
T1 sequence (Q96RJ0 whole entry): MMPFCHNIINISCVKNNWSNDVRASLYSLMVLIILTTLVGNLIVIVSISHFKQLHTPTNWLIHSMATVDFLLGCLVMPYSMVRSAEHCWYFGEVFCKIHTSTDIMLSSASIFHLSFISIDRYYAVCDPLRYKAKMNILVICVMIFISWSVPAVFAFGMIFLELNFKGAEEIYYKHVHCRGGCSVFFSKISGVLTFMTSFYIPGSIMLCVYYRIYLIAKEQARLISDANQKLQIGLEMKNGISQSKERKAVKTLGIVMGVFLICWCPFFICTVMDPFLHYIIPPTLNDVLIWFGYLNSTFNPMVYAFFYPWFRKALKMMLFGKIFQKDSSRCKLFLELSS

cells [2] = type: functional, cell-based
cells [3] = type: functional, cell-based; remark: listed apart in the source
[4] = target: T1, Trace amine-associated receptor 1; assay: Fluorescence-based cell-based high throughput dose response assay to identify agonists of the human trace amine associated receptor 1 (TAAR1).; type: functional
Vero [5] = assay: cells; type: functional; settings: Chlorocebus sabaeus
[6] = target: T2, Heat shock factor protein 1 (Mus musculus, UniProt P38532); assay: HSF1 potentiators in luciferase reporter cells, confirmation, cell-based, NIH3T3, luminescence, dose retest (AID 435004); type: functional;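 also: stress induced by proteasome inhibitor MG132 added 30 min after compound; luciferase reporter driven by HSF1 response element in NIH3T3 cells; actives raise luminescence as potentiators of the MG132 stress response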
T2 sequence (P38532 whole entry): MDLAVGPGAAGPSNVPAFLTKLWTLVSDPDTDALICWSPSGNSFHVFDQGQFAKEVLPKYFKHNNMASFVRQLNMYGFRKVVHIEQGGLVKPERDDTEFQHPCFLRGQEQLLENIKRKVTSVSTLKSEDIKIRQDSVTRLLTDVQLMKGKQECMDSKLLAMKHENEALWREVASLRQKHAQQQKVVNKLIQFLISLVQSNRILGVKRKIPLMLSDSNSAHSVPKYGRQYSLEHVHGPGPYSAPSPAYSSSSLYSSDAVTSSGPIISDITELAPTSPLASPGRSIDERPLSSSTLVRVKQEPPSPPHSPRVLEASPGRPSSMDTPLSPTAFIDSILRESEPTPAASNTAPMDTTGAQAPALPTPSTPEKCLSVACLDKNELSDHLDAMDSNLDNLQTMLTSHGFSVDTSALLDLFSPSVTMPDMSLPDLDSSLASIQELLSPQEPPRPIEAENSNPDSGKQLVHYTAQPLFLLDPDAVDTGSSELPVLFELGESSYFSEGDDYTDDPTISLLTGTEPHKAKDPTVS

Vero [7] = assay: cells; type: functional, cell-based; settings: Chlorocebus sabaeus
[8] = HepG2 cell cytotoxicity, dose response, cytotoxicity control, ATP luminescence, cherry-pick, activator set 2 (AID 1053143); type: functional, cell-based
[9] = Vero E6 cell cytotoxicity, dose response, cytotoxicity control for non-replicating M. tuberculosis project, secondary assay (AID 492998); type: functional, VeroE6; settings: Vero C1008
[10] = THP-1 cell cytotoxicity, dose response, cytotoxicity control for non-replicating M. tuberculosis project (AID 489025); type: functional
[11] = inhibitors of clade B AD8 Env fusion, dose response, cell-based, cherry-pick (AID 652062); type: functional;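 also: luciferase signal from cell-cell fusion driven by HIV-1 clade B AD8 Env; potency is for inhibitors of fusion seen as a drop in luminescence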
Albumin = Albumin (Bos taurus, UniProt P02769); assay: Counterscreen for inhibitors of T-cell receptor (TCR)-CD3 interaction: Fluorescence-based biochemical high throughput dose response assay to identify inhibitors of T-cell receptor (TCR)-CD3 interaction using a TAMRA-labeled BSA probe.; type: functional
Sequence of Albumin (P02769 whole entry, the tested form may be a part): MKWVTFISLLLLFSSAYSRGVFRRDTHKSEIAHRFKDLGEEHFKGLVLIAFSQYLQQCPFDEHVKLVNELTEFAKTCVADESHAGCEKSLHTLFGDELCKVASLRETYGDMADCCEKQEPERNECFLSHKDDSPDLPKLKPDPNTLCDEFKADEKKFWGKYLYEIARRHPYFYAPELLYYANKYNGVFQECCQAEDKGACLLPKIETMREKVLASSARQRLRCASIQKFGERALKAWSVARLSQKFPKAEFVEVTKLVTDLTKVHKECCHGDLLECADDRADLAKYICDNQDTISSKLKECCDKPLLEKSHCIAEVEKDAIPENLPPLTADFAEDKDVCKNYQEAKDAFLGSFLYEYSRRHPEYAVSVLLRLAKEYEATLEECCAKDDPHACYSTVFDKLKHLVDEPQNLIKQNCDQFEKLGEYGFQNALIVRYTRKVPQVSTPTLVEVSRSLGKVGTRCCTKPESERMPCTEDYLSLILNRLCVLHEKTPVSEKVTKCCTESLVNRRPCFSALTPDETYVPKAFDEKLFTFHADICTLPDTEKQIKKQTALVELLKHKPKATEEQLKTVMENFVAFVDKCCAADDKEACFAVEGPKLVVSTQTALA

[12] = ZM109 Env clade C HIV-1 fusion inhibitors, dose response, HeLa effector, CEM target cells, luciferase, cherry-pick (AID 652058); type: functional, cell-based
[13] = HepG2 cell cytotoxicity, dose response, cytotoxicity control for non-replicating M. tuberculosis project (AID 489018); type: functional; settings: Mycobacterium tuberculosis
[14] = inhibitors of HIV Env-driven cell fusion, dose response, cherry-pick (AID 652057); type: functional, cell-based
[15] = off-target signal loss in HeLa-CEM21 co-culture – HeLa F-luc CTL cells, cherry-picked, counter-screen for HIV-1 Env fusion inhibitor project, dose response (AID 652040); type: functional, cell-based;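 also: potency for signal decrease marking cytotoxic or nonspecific inhibition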
Large T antigen = Large T antigen (Simian virus 40, UniProt P03070); type: functional, Betapolyomavirus macacae;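 also: Confirmatory-stage PubChem screen for compounds that inhibit SV40 T antigen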
Sequence of Large T antigen (P03070 whole entry): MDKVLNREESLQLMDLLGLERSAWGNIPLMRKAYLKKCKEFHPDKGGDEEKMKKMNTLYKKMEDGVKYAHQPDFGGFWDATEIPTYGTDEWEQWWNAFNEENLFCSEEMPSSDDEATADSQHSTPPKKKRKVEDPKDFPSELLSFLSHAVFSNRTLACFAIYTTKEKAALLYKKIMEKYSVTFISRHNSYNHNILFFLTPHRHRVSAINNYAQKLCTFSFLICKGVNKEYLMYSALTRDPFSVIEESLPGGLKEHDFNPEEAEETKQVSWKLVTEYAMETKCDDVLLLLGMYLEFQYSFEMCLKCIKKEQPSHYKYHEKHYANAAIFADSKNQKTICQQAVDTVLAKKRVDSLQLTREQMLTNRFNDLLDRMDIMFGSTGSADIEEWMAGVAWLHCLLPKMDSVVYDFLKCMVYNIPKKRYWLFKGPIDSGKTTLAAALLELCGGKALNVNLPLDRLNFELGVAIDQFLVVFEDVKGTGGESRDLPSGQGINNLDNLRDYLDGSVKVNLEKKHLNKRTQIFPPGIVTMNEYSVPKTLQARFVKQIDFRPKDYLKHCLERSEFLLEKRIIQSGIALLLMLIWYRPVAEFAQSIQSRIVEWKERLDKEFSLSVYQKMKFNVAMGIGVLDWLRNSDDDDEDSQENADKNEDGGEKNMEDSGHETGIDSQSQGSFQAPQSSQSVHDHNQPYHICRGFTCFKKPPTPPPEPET

[16] = human group III sPLA2 inhibitors, dose response, biochemical, QFRET, IC50 (AID 743457);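 also: green fluorescence rise as the enzyme cleaves BODIPY PC-A2 in liposomes; potency for inhibition of the enzyme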
fMet-Leu-Phe receptor = fMet-Leu-Phe receptor (Homo sapiens, UniProt P21462); assay: FPR ligands, dose response (AID 519); type: functional
Sequence of fMet-Leu-Phe receptor (P21462 whole entry): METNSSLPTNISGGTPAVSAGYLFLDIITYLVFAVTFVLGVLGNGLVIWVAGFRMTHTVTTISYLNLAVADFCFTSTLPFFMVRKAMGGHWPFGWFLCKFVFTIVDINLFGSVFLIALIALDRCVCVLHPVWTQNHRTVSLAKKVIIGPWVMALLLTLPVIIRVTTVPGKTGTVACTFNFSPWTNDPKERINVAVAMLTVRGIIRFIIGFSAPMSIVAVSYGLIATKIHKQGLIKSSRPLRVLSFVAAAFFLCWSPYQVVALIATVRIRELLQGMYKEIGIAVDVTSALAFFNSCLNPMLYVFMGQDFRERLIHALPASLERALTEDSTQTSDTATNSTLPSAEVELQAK

[17] = cytotoxicity in OVCAR8 ovarian cancer cells, dose response, PAX8 project, cell-based, plate reader, dry powder samples (AID 743197); type: functional; settings: OVCAR-8
[18] = NIH:OVCAR-3 ovarian cancer cell cytotoxicity, dose response, PAX8 inhibitor project, plate reader, dry powder samples (AID 743044); type: functional, cell-based
Paired box protein Pax-8 = Paired box protein Pax-8 (Homo sapiens, UniProt Q06710); assay: inhibitors of PAX8-driven TPO luciferase reporter, dose response, RMG-I cells, cherry-pick (AID 687027); type: functional, cell-based;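 also: luciferase reporter driven by Pax8 target thyroperoxidase promoter measured by SteadyGlo luminescence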
Sequence of Paired box protein Pax-8 (Q06710 whole entry): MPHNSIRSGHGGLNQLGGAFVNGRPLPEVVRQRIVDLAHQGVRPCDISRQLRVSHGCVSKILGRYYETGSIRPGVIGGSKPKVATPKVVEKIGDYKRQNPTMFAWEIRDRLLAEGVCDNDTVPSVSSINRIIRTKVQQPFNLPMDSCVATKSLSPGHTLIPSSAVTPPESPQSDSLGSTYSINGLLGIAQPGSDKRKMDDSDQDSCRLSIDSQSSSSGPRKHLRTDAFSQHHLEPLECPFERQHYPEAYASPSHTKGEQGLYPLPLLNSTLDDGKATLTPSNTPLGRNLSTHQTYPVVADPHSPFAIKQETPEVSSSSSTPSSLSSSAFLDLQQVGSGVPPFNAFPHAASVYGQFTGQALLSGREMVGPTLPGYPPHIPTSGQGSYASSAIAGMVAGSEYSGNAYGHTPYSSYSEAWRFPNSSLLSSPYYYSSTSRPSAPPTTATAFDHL

[19] = IGROV1 ovarian cancer cell cytotoxicity, dose response, PAX8 inhibitor project, plate reader, dry powder samples (AID 743043); type: functional, cell-based; settings: IGROV-1
Protein skinhead-1 = target: T3, Protein skinhead-1 (Caenorhabditis elegans, UniProt P34707); type: functional
T3 sequence (P34707 whole entry): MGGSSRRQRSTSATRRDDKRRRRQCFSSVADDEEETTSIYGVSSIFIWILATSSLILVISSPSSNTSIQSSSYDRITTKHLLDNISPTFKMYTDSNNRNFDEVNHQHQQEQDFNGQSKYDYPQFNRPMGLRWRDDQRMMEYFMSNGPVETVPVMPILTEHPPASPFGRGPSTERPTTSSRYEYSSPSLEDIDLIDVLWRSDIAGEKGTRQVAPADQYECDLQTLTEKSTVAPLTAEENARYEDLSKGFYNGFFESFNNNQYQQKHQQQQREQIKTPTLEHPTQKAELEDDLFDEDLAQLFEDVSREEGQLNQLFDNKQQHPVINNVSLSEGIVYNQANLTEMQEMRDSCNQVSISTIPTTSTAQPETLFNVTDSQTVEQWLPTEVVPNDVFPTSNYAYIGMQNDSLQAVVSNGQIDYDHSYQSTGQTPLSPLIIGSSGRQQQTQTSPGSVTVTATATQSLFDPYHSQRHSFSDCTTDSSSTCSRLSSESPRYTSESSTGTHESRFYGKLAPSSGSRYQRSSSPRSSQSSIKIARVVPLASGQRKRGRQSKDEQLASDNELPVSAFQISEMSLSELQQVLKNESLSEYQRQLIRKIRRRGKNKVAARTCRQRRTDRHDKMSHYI

[20] = target: DNA repair protein RAD52 homolog (Homo sapiens, UniProt P43351); type: functional, biochemical
Sequence of DNA repair protein RAD52 homolog (P43351 whole entry): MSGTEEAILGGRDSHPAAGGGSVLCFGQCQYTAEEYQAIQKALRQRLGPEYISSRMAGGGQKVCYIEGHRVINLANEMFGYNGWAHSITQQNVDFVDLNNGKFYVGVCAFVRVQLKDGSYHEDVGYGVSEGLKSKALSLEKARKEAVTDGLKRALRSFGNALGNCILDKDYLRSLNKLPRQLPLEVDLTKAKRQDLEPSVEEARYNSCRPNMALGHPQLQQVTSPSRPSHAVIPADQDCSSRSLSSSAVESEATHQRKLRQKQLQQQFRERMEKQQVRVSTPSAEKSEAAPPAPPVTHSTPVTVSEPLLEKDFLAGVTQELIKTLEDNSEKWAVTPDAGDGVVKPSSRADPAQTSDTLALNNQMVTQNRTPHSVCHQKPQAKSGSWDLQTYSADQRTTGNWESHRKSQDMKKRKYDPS

[21] = target: T4, Histone-lysine N-methyltransferase NSD2 (Homo sapiens, UniProt O96028); type: biochemical
T4 sequence (O96028 whole entry): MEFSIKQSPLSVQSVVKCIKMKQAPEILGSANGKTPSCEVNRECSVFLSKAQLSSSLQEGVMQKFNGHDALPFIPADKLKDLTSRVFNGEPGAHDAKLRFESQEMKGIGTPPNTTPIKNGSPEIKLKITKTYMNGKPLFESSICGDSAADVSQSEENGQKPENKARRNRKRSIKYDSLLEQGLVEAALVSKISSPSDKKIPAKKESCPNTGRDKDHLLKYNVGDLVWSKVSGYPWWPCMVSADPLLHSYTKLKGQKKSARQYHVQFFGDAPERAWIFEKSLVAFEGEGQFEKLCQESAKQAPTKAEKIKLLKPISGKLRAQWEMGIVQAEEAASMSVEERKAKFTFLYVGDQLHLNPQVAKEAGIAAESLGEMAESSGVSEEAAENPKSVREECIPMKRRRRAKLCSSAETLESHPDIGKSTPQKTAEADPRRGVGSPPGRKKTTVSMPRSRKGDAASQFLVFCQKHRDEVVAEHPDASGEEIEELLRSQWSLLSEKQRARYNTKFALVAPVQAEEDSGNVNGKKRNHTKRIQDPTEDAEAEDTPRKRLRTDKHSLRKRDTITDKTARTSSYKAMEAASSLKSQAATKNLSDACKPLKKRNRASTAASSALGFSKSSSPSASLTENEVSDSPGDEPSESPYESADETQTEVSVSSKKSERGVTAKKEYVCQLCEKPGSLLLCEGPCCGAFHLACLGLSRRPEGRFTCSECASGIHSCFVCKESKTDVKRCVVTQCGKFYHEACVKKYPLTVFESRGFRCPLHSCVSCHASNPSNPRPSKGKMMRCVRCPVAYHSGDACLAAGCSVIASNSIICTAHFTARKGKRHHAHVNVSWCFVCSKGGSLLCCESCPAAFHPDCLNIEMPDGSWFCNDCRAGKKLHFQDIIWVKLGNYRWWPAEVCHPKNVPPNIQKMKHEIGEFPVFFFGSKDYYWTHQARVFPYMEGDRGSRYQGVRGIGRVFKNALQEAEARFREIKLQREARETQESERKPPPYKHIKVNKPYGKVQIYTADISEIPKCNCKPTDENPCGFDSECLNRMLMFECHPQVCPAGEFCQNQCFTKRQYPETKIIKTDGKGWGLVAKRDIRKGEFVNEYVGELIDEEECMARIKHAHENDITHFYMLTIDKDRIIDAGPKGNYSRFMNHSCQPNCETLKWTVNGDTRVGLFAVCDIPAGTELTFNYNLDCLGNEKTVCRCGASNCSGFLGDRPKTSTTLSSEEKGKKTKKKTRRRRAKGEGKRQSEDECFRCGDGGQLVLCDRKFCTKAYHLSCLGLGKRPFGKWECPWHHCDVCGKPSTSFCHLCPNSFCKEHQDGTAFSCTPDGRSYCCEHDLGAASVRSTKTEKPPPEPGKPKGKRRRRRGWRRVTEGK

[22] = target: Fructose-bisphosphate aldolase (Mycobacterium tuberculosis, UniProt P9WQA3); assay: Fluorescence-based biochemical high throughput dose response assay for inhibitors of the fructose-bisphosphate aldolase (FBA) of M. tuberculosis.; type: functional
Sequence of Fructose-bisphosphate aldolase (P9WQA3 whole entry): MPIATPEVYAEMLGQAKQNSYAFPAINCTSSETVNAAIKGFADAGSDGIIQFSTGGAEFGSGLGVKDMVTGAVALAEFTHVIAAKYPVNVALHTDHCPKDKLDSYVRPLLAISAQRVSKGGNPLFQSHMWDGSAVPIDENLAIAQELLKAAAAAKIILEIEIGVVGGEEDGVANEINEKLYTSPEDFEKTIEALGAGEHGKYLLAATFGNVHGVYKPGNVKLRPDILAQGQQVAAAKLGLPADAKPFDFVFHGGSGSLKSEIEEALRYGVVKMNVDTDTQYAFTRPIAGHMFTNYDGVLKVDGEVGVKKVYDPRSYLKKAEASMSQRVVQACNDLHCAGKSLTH

[23] = Late stage assay provider results from the probe development effort to identify selective inhibitors of heat shock protein 90 (HSP90): Absorbance-based cell proliferation assay in MCF7 cells.; type: functional
[24] = Late stage assay provider results from the probe development effort to identify selective inhibitors of heat shock protein 90 (HSP90): Absorbance-based cell proliferation assay in SKBR3 cells.; type: functional; settings: SK-BR-3

In the case of `CC(C)[C@H](NC(=O)C1CC1)C(=O)N1CCC[C@H]1C(=O)NCCc1ccccc1Cl`, the IC50 [1] is reported as 3.18 µM (active), the EC50 (cells [2]) is reported as > 29.9 µM (inactive) and the IC50 (cells [3]) is reported as > 29.9 µM (inactive). The EC50 [4] was 3.03 µM (active).

For `O=C(Nc1ccc(Cl)cn1)c1ccc([N+](=O)[O-])o1`, the CC50 (Vero [5]) was 16.9 µM (active), the EC50 [6] was 20.8 µM (active) and the IC50 (Vero [7]) was > 25 µM (active). The AC50 [8] was 26 µM (active).

In the case of `CC1=NN(C(=O)c2ccccc2)C(O)(c2ccc(Br)cc2)C1` (centres undefined), the CC50 [9] is reported as > 20 µM (active), the CC50 [10] is reported as 22.8 µM (active) and the AC50 [11] is reported as 42.2 µM (active). The IC50 (Albumin) was > 94.2 µM (inactive), the AC50 [12] was 8 µM (active) and the CC50 [13] was > 20 µM (active). For the same compound, the AC50 [14] was 9.38 µM (active) and the AC50 [15] was 21.6 µM (active).

With `CNc1nn(-c2cccc(Cl)c2)nc1N` the IC50 (Large T antigen) was 29.9 µM (active), the IC50 [16] was > 122 µM (inactive) and the Ki (fMet-Leu-Phe receptor) was > 66.7 µM (inactive).

For `COc1ccccc1S(=O)(=O)N(C)C[C@H]1Oc2cc(C#CCC3CCCC3)ccc2S(=O)(=O)N([C@H](C)CO)C[C@H]1C`, the AC50 [17] was 64 µM (active), the AC50 [18] was 35.5 µM (active) and the AC50 (Paired box protein Pax-8) was 4.83 µM (active). The AC50 [19] was 55.4 µM (active).

With `COc1ccc(Nc2ccnc(Nc3ccc(OC)cc3)n2)cc1` the AC50 [8] was 26 µM (active).

In the case of `Cc1c(C)n(Cc2ccccc2)c2ccc(C(=O)OCCN(C)C)cc12`, the IC50 (Protein skinhead-1) is reported as 58.2 µM (inactive), the AC50 [20] is reported as 14 µM (active) and the AC50 [21] is reported as > 20 µM (inactive).

For `CCOc1ccc(C(=O)CCC(=O)NNC(=O)c2ccccc2O)cc1`, the IC50 (Albumin) was > 94.1 µM (inactive).

In the case of `CCc1c(C)nc2c(-c3ccccc3)cnn2c1O`, the IC50 [22] is reported as 3.39 µM (active) and the IC50 [16] is reported as > 122 µM (inactive).

In the case of `N#Cc1cc2ccc(OCc3cccc(C(=O)O)c3)cc2oc1=O`, the IC50 [23] is reported as > 100 µM (inactive) and the IC50 [24] is reported as > 100 µM (inactive).

With `Cc1cc(C(=O)CN2C(=O)C(=O)N(C3CCCC3)C2=O)c(C)n1CCc1ccc(F)cc1` the IC50 [1] was 5.57 µM (active), the EC50 (cells [2]) was > 29.9 µM (inactive) and the IC50 (cells [3]) was > 29.9 µM (inactive). For the same compound, the EC50 [4] was 2.96 µM (active).

With `COC(=O)c1cccc(COc2ccc3cc(C#N)c(=O)oc3c2)c1` the IC50 [23] was > 100 µM (inactive) and the IC50 [24] was > 100 µM (inactive).

In the case of `CCc1cc2c(=O)c(-c3nc4ccccc4n3C)c(COCC(=O)O)oc2cc1OC(=O)C(C)(C)C`, the Ki (fMet-Leu-Phe receptor) is reported as > 66.7 µM (inactive).

Source: ChEMBL document CHEMBL1201862, “PubChem BioAssay data set” (2004)
